Test results reported in PMC5612938, “A multiple biomarker assay for quality assessment of botanical drugs using a versatile microfluidic chip” (Scientific Reports, 2017).
Counter-ions that a name gives are not always drawn. Marks after values point to notes of the source that are not given here.

Key:
[1] = molecular target: T1, ACE (from rabbit lung) (Oryctolagus cuniculus, UniProt P12822); experiment: on-chip ACE inhibition assay (FAPGG hydrolysis, absorbance decrease 340 nm); format: biochemical; parameters: key to IC50 (μM) or inhibition rate: /: No obvious inhibition observed; conditions: for IC50 (μM) or inhibition rate: symbol / = no obvious inhibition
T1 construct: ACE (from rabbit lung); purchased Sigma-Aldrich; host or cells: rabbit lung
T1 sequence (P12822 34-1310): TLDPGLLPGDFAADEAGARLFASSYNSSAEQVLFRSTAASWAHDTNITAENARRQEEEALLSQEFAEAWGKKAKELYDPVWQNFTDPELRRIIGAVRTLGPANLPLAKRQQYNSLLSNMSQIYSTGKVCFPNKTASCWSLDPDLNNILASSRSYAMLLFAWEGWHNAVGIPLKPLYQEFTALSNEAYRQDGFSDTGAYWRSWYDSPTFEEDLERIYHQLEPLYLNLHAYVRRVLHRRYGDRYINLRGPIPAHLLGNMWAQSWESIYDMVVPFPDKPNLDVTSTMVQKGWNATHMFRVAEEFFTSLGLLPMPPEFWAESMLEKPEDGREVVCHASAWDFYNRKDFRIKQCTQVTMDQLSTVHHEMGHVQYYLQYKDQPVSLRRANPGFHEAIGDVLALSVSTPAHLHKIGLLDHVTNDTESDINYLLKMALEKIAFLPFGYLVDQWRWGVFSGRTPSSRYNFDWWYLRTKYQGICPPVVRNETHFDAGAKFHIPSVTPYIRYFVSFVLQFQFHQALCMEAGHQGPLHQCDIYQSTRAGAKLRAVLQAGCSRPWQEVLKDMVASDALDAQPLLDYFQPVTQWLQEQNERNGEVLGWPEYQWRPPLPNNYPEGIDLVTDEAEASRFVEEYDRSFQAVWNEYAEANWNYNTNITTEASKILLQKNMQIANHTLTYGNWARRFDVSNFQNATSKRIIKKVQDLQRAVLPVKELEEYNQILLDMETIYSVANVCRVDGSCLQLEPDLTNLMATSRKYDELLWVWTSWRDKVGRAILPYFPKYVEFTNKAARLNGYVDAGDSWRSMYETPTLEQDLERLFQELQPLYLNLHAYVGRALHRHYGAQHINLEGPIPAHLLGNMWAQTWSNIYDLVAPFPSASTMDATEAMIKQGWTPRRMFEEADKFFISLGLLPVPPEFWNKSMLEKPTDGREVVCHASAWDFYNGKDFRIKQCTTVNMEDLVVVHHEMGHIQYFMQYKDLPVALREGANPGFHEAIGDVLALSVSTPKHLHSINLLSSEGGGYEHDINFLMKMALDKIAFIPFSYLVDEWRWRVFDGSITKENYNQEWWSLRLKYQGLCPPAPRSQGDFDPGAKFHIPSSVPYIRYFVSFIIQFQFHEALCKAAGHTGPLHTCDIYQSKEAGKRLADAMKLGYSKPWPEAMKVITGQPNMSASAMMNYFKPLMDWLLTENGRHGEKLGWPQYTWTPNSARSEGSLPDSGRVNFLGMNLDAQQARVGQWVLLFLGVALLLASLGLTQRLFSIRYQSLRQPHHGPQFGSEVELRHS
Description: To enhance the performance of the on-chip assay, experimental parameters such as concentrations of enzymes and substrates, substrate reaction time, and incubation time of samples and enzymes were stepwise optimized.
(§1) The optimized protocol was first applied to assess the quality of 11 batches of QSYQ intermediates (Table 1). Enzyme inhibition (in percentages) was employed as an indicator of drug quality and calculated according to the following equations: thrombin inhibition (%) = [1 − (AQSYQ/Ablank)] × 100; ACE inhibition (%) = [1 − (ΔAQSYQ/ΔAblank)] × 100; where AQSYQ and Ablank were the absorbance of the test sample and the blank sample after the enzymatic reaction (the background value was subtracted), and ΔAQSYQ and ΔAblank were the absorbance decrease between 0 min and 30 min of the samples.
Thrombin (from human plasma), ACE (from rabbit lung), FAPGG and captopril were purchased from Sigma-Aldrich (St. Louis, USA). […] AEBSF-HCl was purchased from Selleckchem (Houston, USA). Trizma base (Tris) was obtained from Sangon Biotech (Shanghai, China) and dimethyl sulfoxide (DMSO) from J&K Scientific (Beijing, China). All other chemicals were purchased from Sinopharm Chemical (Shanghai, China) unless otherwise indicated. 0.2 M Phosphate buffer (PB, pH 6.5), and 50 mM Tris-HCl buffer (200 mM NaCl, pH 8.3) were prepared as assay buffers for thrombin and ACE, respectively.
MBs (10 mg/mL) were diluted 10 times in PB or Tris-HCl buffer, and 10 μL of the diluted MBs (1 mg/mL) were injected into one channel of the chip using a syringe infusion pump (Harvard Apparatus, USA) and retained by an external magnet. Then, 10 μL of thrombin or ACE solution was added and incubated with MBs for two hours at room temperature to form enzyme-MB complexes. The magnet was manually controlled to move MBs back and forth to enhance the ratio of reaction. Subsequently, MBs were washed twice in assay buffer and magnetically transferred to the other channel through the fluidic bridge, whose opening and closing was controlled by a pneumatic valve. Next, 10 μL of sample solutions of tested drug and 10 μL of enzymatic substrate were sequentially infused to the channel by the pump and incubated with the enzyme. When the enzymatic reaction was finished, the MBs were retained in the channel, and air was injected into the channel from the inlet using a syringe to push all the reacted solution to a 384-well plate. […] Moreover, after detection, the reaction channel was washed three times by assay buffer to remove unbound constituents. 20 μL of 80% aqueous methanol was then injected and incubated with MBs for one hour to dissociate the bound constituents. The resulting solutions of replicates were combined, evaporated by a centrifugal evaporator, reconstituted in 80% aqueous methanol, centrifuged at 10,000 rpm for 10 min, and analyzed by LC-MS for chemical identification.

[2] = molecular target: T1, ACE (from rabbit lung); experiment: on-chip affinity screening, binding degree by LC-MS peak area vs protein-free control (ACE); conditions: for ACE; [(As − Ac)/As] × 100, sample vs protein-free control, EIC peak area
From the text: In addition to quality assessment, the microfluidic chip can also function as “affinity chromatography” to identify bioactive constituents from botanical drugs in a convenient and efficient manner. After the bioassay, the bound phytochemicals were dissociated from the enzymes and accurately identified by LC-MS. The material used for the chambers in microfluidic system, polydimethylsiloxane (PDMS), is apt to adsorb small molecules nonspecifically, thus a protein-free control was applied to reflect the degree of nonspecific binding of compounds to the chip. Peak areas were obtained from the extracted ion chromatography (EIC) in an ion-trap mass spectrometry (IT-MS), and binding degree (binding degree % = [(As − Ac)/As] × 100, where As and Ac were the peak area in the sample and control, respectively) was calculated to indicate binding specificity. […] All these peaks were unambiguously confirmed via comparisons with chemical standards in terms of retention time and mass spectra (Table 2), and five thrombin inhibitors (danshensu, salvianolic acid B, salvianolic acid C, rosmarinic acid and ginsenoside Rg1) and six ACE inhibitors (astragaloside IV, ononin, formononetin, calycosin, danshensu and salvianolic acid B) were preliminarily identified. […] Enzyme inhibition assays of these hit compounds were then performed to verify the screening results. […] Compounds showing an inhibition rate over 70% were subjected to IC50 measurement.
(§2) MBs (10 mg/mL) were diluted 10 times in PB or Tris-HCl buffer, and 10 μL of the diluted MBs (1 mg/mL) were injected into one channel of the chip using a syringe infusion pump (Harvard Apparatus, USA) and retained by an external magnet. Then, 10 μL of thrombin or ACE solution was added and incubated with MBs for two hours at room temperature to form enzyme-MB complexes. The magnet was manually controlled to move MBs back and forth to enhance the ratio of reaction. Subsequently, MBs were washed twice in assay buffer and magnetically transferred to the other channel through the fluidic bridge, whose opening and closing was controlled by a pneumatic valve. Next, 10 μL of sample solutions of tested drug and 10 μL of enzymatic substrate were sequentially infused to the channel by the pump and incubated with the enzyme. When the enzymatic reaction was finished, the MBs were retained in the channel, and air was injected into the channel from the inlet using a syringe to push all the reacted solution to a 384-well plate. The absorbance of the solution was then monitored at 405 nm (for S-2238) or 340 nm (for FAPGG) using an Infinite F200 spectrophotometer (Tecan, Männedorf, Switzerland). Moreover, after detection, the reaction channel was washed three times by assay buffer to remove unbound constituents. 20 μL of 80% aqueous methanol was then injected and incubated with MBs for one hour to dissociate the bound constituents. The resulting solutions of replicates were combined, evaporated by a centrifugal evaporator, reconstituted in 80% aqueous methanol, centrifuged at 10,000 rpm for 10 min, and analyzed by LC-MS for chemical identification.
An Agilent 1100 HPLC system (Agilent Technologies, Waldbronn, Germany) coupled with an LCQ Deca XP^plus IT-MS (Thermo Finnigan, San Jose, CA, USA) equipped with an electrospray ionization (ESI) interface was employed for structure elucidation of the bounded constituents. The analysis was performed in negative ionization mode under following operation parameters: scan range m/z 100–1500; capillary voltage −15 V; source voltage −3 kV; capillary temperature 350 °C; sheath gas (N2) 60 arb; auxiliary gas (N2) 20 arb.

[3] = molecular target: T2, Thrombin (from human plasma) (Homo sapiens, UniProt P00734); experiment: on-chip thrombin inhibition assay (S-2238 hydrolysis, absorbance 405 nm); format: biochemical; conditions: for thrombin
T2 construct: Thrombin (from human plasma); purchased Sigma-Aldrich; host or cells: human plasma
Description: To enhance the performance of the on-chip assay, experimental parameters such as concentrations of enzymes and substrates, substrate reaction time, and incubation time of samples and enzymes were stepwise optimized. The activity of thrombin was determined by measuring the hydrolysis of chromogenic substrate S-2238 (HD-Phe-Pip-Arg-pNA) at 405 nm. As depicted in Fig. 2a, the absorbance increased rapidly along with the elevated concentrations of thrombin, while it reached a plateau at 0.5 U/mL. […] Moreover, it was clear from Fig. 2d that the maximum inhibitory effect of QSYQ sample (I1 of Table 1 in this assay) on thrombin was observed after 60 min of incubation. Therefore, to achieve favorable response and prevent signal saturation, optimal assay conditions for thrombin were determined to be 0.2 U/mL, 0.31 mM, 30 min and 60 min for the final concentrations of thrombin and S-2238, substrate reaction time and incubation time, respectively. […] In this assay, the concentrations of ACE and FAPGG were finally set at 0.027 U/mL and 0.72 mM, where the background value was lower and the reaction time was relatively shorter (30 min).
as §1, with “samples. A scatter plot was generated to display the inhibition result of thrombin and ACE simultaneously. […] Moreover, artificial abnormal samples I6, I7 and I8, each with one abnormal (pre-extracted) herb, presented relatively lower inhibitions compared with I1.” for “samples.”
Thrombin (from human plasma), ACE (from rabbit lung), FAPGG and captopril were purchased from Sigma-Aldrich (St. Louis, USA). S-2238 was obtained from Aglyco (Beijing, China). AEBSF-HCl was purchased from Selleckchem (Houston, USA). Trizma base (Tris) was obtained from Sangon Biotech (Shanghai, China) and dimethyl sulfoxide (DMSO) from J&K Scientific (Beijing, China). All other chemicals were purchased from Sinopharm Chemical (Shanghai, China) unless otherwise indicated. 0.2 M Phosphate buffer (PB, pH 6.5), and 50 mM Tris-HCl buffer (200 mM NaCl, pH 8.3) were prepared as assay buffers for thrombin and ACE, respectively.
as §2, with “20 μL of 80% aqueous methanol was then injected and incubated with MBs for one hour to dissociate the bound constituents. The resulting solutions of replicates were combined, evaporated by a centrifugal evaporator, reconstituted in 80% aqueous methanol, centrifuged at 10,000 rpm for 10 min, and analyzed by LC-MS for chemical identification.” left out

| Compound | ACE inhibition (in words) ([1]; at tested concentrations) | inhibition rate ([1]; for ACE, maximum inhibition rate observed in the assay) | Binding degree (%) [2] | IC50 (μM) or inhibition rate ([1]; for ACE) | IC50 [3] |
| --- | --- | --- | --- | --- | --- |
| COc1ccc(-c2coc3cc(O[C@@H]4O[C@H](CO)[C@@H](O)[C@H](O)[C@H]4O)ccc3c2=O)cc1 [Ononin] | showed ACE inhibitions | 30.6%^d | 52.6^d % |  |  |
| COc1ccc(-c2coc3cc(O)ccc3c2=O)cc1 [Formononetin] |  |  | 53.8^d % | /^g |  |
| CC(C)(O)[C@@H]1CC[C@](C)([C@H]2[C@@H](O)C[C@@]3(C)[C@@H]4C[C@H](O[C@@H]5O[C@H](CO)[C@@H](O)[C@H](O)[C@H]5O)[C@H]5C(C)(C)[C@@H](O[C@@H]6OC[C@@H](O)[C@H](O)[C@H]6O)CC[C@@]56C[C@@]46CC[C@]23C)O1 [Astragaloside IV] |  |  | 28.3^d % | /^g |  |
| COc1ccc(-c2coc3cc(O)ccc3c2=O)cc1O [Calycosin] |  |  | 19.1^d % | /^g |  |
| NCCc1ccc(S(=O)(=O)F)cc1 [AEBSF-HCl, reference compound] |  |  |  |  | 3.91 µM |
